Test results published in PubChem BioAssay (NCI).
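Briefly, cells in 96-well plates were exposed to five compound concentrations for 48 h, and endpoints were estimated by linear interpolation. GI50: concentration for 50% inhibition of growth. TGI: total growth inhibition.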

Assays:
Assay in all cases: NCI-60 cell line screen, 48 h
DU-145 prostate = tested on: DU-145 prostate
LOX IMVI melanoma = tested on: LOX IMVI melanoma
IGROV1 ovarian = tested on: IGROV1 ovarian
RPMI-8226 leukemia = tested on: RPMI-8226 leukemia
MALME-3M melanoma = tested on: MALME-3M melanoma
PC-3 prostate = tested on: PC-3 prostate
HCT-116 colon = tested on: HCT-116 colon
SK-MEL-2 melanoma = tested on: SK-MEL-2 melanoma
HCC-2998 colon = tested on: HCC-2998 colon
OVCAR-8 ovarian = tested on: OVCAR-8 ovarian
SF-295 CNS = tested on: SF-295 CNS
ACHN renal = tested on: ACHN renal
OVCAR-4 ovarian = tested on: OVCAR-4 ovarian
U251 CNS = tested on: U251 CNS
UACC-257 melanoma = tested on: UACC-257 melanoma

SMILES | TGI (DU-145 prostate) [µM] | TGI (LOX IMVI melanoma) [µM] | TGI (IGROV1 ovarian) [µM] | TGI (RPMI-8226 leukemia) [µM] | TGI (MALME-3M melanoma) [µM] | TGI (PC-3 prostate) [µM] | TGI (HCT-116 colon) [µM] | TGI (SK-MEL-2 melanoma) [µM] | TGI (HCC-2998 colon) [µM] | TGI (OVCAR-8 ovarian) [µM] | TGI (SF-295 CNS) [µM] | TGI (ACHN renal) [µM] | TGI (OVCAR-4 ovarian) [µM] | TGI (U251 CNS) [µM] | TGI (UACC-257 melanoma) [µM] | GI50 (UACC-257 melanoma) [µM] | GI50 (SF-295 CNS) [µM] | GI50 (ACHN renal) [µM]
CN(C)CCCNc1ncnc2nc[nH]c12 | > 100 | > 100 | > 100 | > 100 | > 100 | > 100 | > 100 | > 100 | > 100 | > 100 | > 100 | > 100 | > 100 | > 100 | – | – | – | –
COc1ccc2oc(=O)cc(C)c2c1 | > 100 | > 100 | > 100 | > 100 | > 100 | > 100 | > 100 | > 100 | > 100 | > 100 | > 100 | > 100 | > 100 | > 100 | > 100 | – | – | –
Cc1cc(OCc2nn(CN3CCN(C)CC3)c(=S)n2/N=C/c2ccc(-c3ccc(Cl)cc3Cl)o2)ccc1Cl | > 100 | > 100 | > 100 | > 100 | – | > 100 | > 100 | > 100 | 31.4 | > 100 | > 100 | > 100 | 70.6 | > 100 | > 100 | – | – | –
FC(F)(F)C(C1=NC(C(F)(F)F)(C(F)(F)F)N=C(N2CCOCC2)O1)C(F)(F)F | > 100 | 63.8 | 57.1 | 57.7 | – | 63.2 | > 100 | 57.8 | > 100 | 47.3 | 44.6 | 49.3 | 66.1 | > 100 | 75.3 | – | – | –
COc1ccc(C2C3CCc4ccccc4C3=NN2S(=O)(=O)c2ccc(Cl)cc2)cc1 (centres undefined) | > 100 | > 100 | 52.9 | 51.3 | > 100 | > 100 | > 100 | > 100 | – | > 100 | 50.9 | 69.2 | > 100 | 60.8 | > 100 | – | – | –
O=C(O)C(O)Cc1ccccn1 (centres undefined) | > 100 | > 100 | > 100 | > 100 | > 100 | > 100 | – | > 100 | > 100 | > 100 | > 100 | > 100 | > 100 | > 100 | > 100 | – | – | –
COc1cc(-c2c(C#N)c(N)c(C#N)c3c2COc2ccccc2-3)cc(OC)c1OC | > 100 | > 100 | > 79.6 | > 100 | 48.8 | > 100 | > 100 | > 77.6 | > 100 | 97.6 | 58.5 | > 100 | > 64.8 | 34.4 | > 100 | – | – | –
O=C(c1ccccc1)[C@H]1Nc2ccc(Cl)cc2[C@H]2OCCC[C@@H]12 | – | 31.2 | > 100 | 57.7 | 48.1 | – | 31.5 | 43.9 | 45.8 | 41.9 | 32.8 | 93.5 | 45 | 31.7 | – | – | – | –
C=CC(=O)N1CCN(c2nc(OC[C@@H]3CCCN3C)nc3c2CCN(c2cccc4cccc(C)c24)C3)C[C@@H]1CC#N | – | – | – | – | – | – | – | – | – | – | 2.9 | 2.14 | – | – | 3.74 | 1.79 | 1.53 | 0.953
N=C(N)C(N=Nc1ccccc1)C(N)=O (centres undefined) | > 100 | > 100 | > 100 | > 100 | > 100 | > 100 | > 100 | > 100 | > 100 | > 100 | > 100 | > 100 | > 100 | > 100 | > 100 | – | – | –
CS/C(=N\C(=S)Nc1ccccc1)Nc1ccccc1 | – | 38.2 | 97.6 | 62.1 | 60.4 | – | – | 56.4 | 57 | 77.4 | 97 | 70.7 | > 100 | > 100 | – | – | – | –
Nc1ccc(C2NC(=O)Cc3c2ccc2ccccc32)cc1 (centres undefined) | > 100 | > 100 | > 100 | > 100 | > 100 | > 100 | > 100 | > 100 | > 100 | > 100 | > 100 | > 100 | > 100 | > 100 | > 100 | – | – | –
NC(=O)NO | > 2500 | > 2430 | > 2020 | 2260 | 2480 | > 2500 | > 2500 | > 2450 | 1810 | > 2460 | 1950 | 2060 | > 2500 | 2330 | > 2500 | – | – | –
